The record followed here is patent US20180064659A1, “AGENTS USEFUL FOR TREATING OBESITY, DIABETES AND RELATED DISORDERS” (The Regents of the University of California, priority 2015, published 2018).

Molecules are shown by their SMILES.

The target in one assay is T1, Shc-PTB domain (Homo sapiens, UniProt P29353).
T1 sequence (P29353 1-473 isoform P29353-2): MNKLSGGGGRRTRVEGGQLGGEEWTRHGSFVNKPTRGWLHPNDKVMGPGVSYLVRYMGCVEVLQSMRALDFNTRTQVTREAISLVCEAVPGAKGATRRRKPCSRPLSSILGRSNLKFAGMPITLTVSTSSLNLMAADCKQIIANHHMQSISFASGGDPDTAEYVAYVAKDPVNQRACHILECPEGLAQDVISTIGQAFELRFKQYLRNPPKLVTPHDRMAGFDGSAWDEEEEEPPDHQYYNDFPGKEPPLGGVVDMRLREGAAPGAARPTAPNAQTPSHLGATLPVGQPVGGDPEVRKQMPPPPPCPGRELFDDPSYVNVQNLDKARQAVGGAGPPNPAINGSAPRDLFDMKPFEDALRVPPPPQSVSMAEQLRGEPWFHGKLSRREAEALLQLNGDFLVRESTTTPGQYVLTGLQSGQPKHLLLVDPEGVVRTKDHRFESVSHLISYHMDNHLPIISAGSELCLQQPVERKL
The assay can be described thus: Octet RED 384 binding to p52Shc protein (p52Shc lacking PTB domain as reference). Particulars: for EC50: 10 pM to 100 uM, Octet RED 384. How it is done: Sensogramms were obtained, and response [nm] for each concentration was plotted against log concentration of idebenone. Sigmoidal, variable slope fitting analysis was performed using GraphPad Prism Software (GraphPad Software, Inc., La Jolla, Calif.). […] Cells were stimulated with 0.2 nM insulin for 10 minutes, and Western analyzed for induction of Akt and ERK. Insulin dependent activation of Akt is presented as fold change over vehicle control, and plotted against log concentration of idebenone; tubulin signal was used for normalization between biological samples. Sigmoidal dose-response (variable slope) fitting analysis was performed, EC50, hill slope, and top response were identified, as described above, and are indicated on the graph. p-value was calculated by testing R^2 for significance for N=65. […] Idebenone at indicated dose was given to animals 30 minutes before dark phase for five days. At the day of Insulin Tolerance Test (ITT) additional dose of idebenone was given to animals two hours prior to insulin injection. For ITT, the food was deprived at 7 am (the beginning of light phase), basal glucose was measured at 11 am, and insulin was administrated at 0.8 U/kg dose; blood glucose was recorded and expressed as % of baseline, and plotted against time. […] Software (CambridgeSoft Corporation, Waltham, Mass.), and virtually docked to Shc-PTB using iGEMDOCK software (BioXGEM Lab, National Chiao-Tung University Hsinchu, Taiwan, R.O.C), and, MOL file was generated. Three dimensional structure of PTB domain of Shc was obtained from Protein Data Bank (http://www.rcsb.org/).
FIGS. 9A-E illustrate that SrcI-1 binds into PTB domain of Shc protein. […] Sensograms were obtained and shown. […] Sigmoidal, variable slope fitting analysis was performed; EC50, hill slope, and top response were identified, and indicated. p-value was calculated by testing R^2 for significance for N=24; SrcI-1 was binding to Shc-PTB domain with EC50 of 3 μM.
FIGS. 11A-F illustrate details of interaction of idebenone analogs, idebenone and SrcI-1 with Shc protein. […]
(BLI is a label-free optical method that tracks binding on a fibre tip over time.)

In another assay the test system is FL83B cells. The assay can be described thus: High-throughput in-cell western blot (ICWB) screen for insulin sensitizers, P-Akt over P-ERK. Type of assay: cell-based, mouse. The method, then: Drugs were screened by in-cell western blot (ICWB) for their ability to stimulate phospho-Akt activation in the presence of trace or 10 nM insulin (FIG. 4A). Cells in wells were treated with drugs, and the activity (phosphorylation) of Akt was determined by a phospho-Akt specific antibody. In FIG. 4A, low insulin was given and drugs a, b, c, stimulated Akt activation. In FIG. 4B, 10 nM insulin was given and a, b, and c stimulated signaling over background, and d and […] inhibited. […] Drugs were primarily screened for their ability to promote insulin-dependent stimulation of (phospho)Akt, then secondarily screened for lack of activity to stimulate (phospho) Erk, or a high Akt/Erk ratio. Such drugs are expected to cause insulin sensitivity, resistance to obesity, and longevity. Some drugs having these desired characteristics are Shc inhibitors.
Primary ICWB was performed as follows: FL83B cells were seeded on 384 well plates, 10,000 cells per well in F-12 media supplemented with 10% FBS and 25 mM glucose; 48 hours later the media was replaced with F-12, 25 mM glucose without FBS for sixteen hours; cells were supplemented with assigned drug at desired concentration for 1 hour in duplicate and then, the cells were stimulated with desired concentration of insulin for ten minutes for Akt activation and fifteen minutes for ERK activation measurements. After that time the media was removed and replaced with fixing solution of 5% Formaldehyde in PBS, pH=7.4, 30 minutes later, the fixing solution was replaced with the permeabilization buffer, 0.1% triton X100 in PBS for 40 minutes. […] After the incubation with the secondary antibodies for one hour at room temperature, the wells were washed again two times with the 0.1% tween-20 in PBS and scanned on the Li-Cor Odyssey infrared scanner; images were analyzed with the Li-Cor Odyssey software. […] Phospho-Akt, Phospho-ERK signals than were normalized by tubulin signals in each well and the densitometric results were analyzed to identify drugs which improved metabolic insulin sensitivity without inducing the mitogenic ERK activation. […]

The EC50 is the concentration that produces a half-maximal response. Lower therefore signals greater potency. With `COc1cc2ncnc(Nc3ccc(Oc4ccccc4)cc3)c2cc1OC` [SrcI-1], at Shc-PTB domain (24 point titration), the concentration for a half-maximal effect (EC50) stood at 3000 nM. The “Binding to Shc-PTB” value at Shc-PTB domain (Octet RED 384 sensograms) was “binding to Shc-PTB in dose-dependent fashion”. Further, in the assay on FL83B cells (1689 molecules screened), the “Score rank in screening assay” value is listed as “scored in the top 35 out of 1689 molecules”.

In the case of `COC1=C(OC)C(=O)C(CCCCCCCCCCO)=C(C)C1=O` [idebenone], the EC50 on Shc-PTB domain (48 point titration) was found to be 1.2 nM. Further, the “P-Akt/P-Erk ratio in primary screen” value in the assay with FL83B cells (ICWB primary screen) is given as “increased P-Akt/P-Erk ratio”.
